Assays:
[1] = test system: hair follicle formation; conditions: whole skin organ culture; as previously shown (Kashiwagi 1997); cited from earlier work
[2] = test system: hair follicle morphogenesis in embryonic skin cultures; assay: Mouse embryonic skin organ culture, effects of reduced HA on hair follicle morphogenesis; type: cell-based; conditions: for in vivo skin stage to which the cultured skin / follicles correspond: after 72 hr in culture of 14.5 dpc skin, histology and syndecan-1 pattern
Description: To study the effects of HA misexpression in the development of a HF, an embryonic skin organ culture model was utilized. To assess how representative this model was for investigating the role of HA distribution in vivo, the expression of CD44 and HA in the cultured embryonic skin was first investigated. Embryonic skin cultures were established using pre-hair follicle initiation (14.5 dpc) skin and were incubated for 72 hrs. The cultured skin hair placodes became visible after 24 hr in culture. After 72 hr, skins were removed from culture, sectioned, and the expression of both HA and CD44 were assessed (FIG. 19). The dermal condensate was negative for HA staining (red) while expressing CD44 (green). Expression of both proteins in the HF of the cultured backskin was virtually indiscernible from that of 16.5 dpc back skin in vivo (FIG. 19). The effects of HA synthesis downregulation of hair follicle morphogenesis was investigated. Embryonic skin was cultured for 72 hrs in the presence of BSA (control) or one of two HAS inhibitors, leflunomide (Lef) (50 nM) or 4-methylumbelliferone (30 mM). In the presence of BSA, CD44 was localized predominantly to the dermal condensate, while HA remained absent from the dermal condensate (FIG. 20). […] To ascertain whether this reduction was due to an actual inhibitory effect of Lef on hair follicle morphogenesis and development, cultured skin from all treatments and control groups were enzymatically split and the separated epidermis inverted to allow the visualization of the developing epidermal hair germs. […] To explore the effects of a global degradation of HA protein on hair follicle morphogenesis within the skin cultures, embryonic skin was cultured for 72 hrs in the presence of either BSA (control) or hyaluronanase (HAase) (25 units/ml). […] Following 72 hrs in culture, embryonic skin from the four treatments described above were cryo-embedded, sectioned, and stained with hematoxylin and eosin (H&E) for histological study. […] After 72 hr in culture, follicles corresponded to those found in 14.5 dpc skin in vivo, both histologically and in their syndecan-1 expression patterns (FIG. 22).

[3] = Lef 50 nM, 4-methylumbelliferone 30 mM
[4] = embryonic skin cultured 72 hrs, Lef 50 nM, 4-methylumbelliferone 30 mM, HAase 25 units/ml
[5] = embryonic skin cultured 72 hrs, Lef 50 nM, 4-methylumbelliferone 30 mM, HAase 25 units/ml, vs BSA control

Compound | hair follicle formation [1] | in vivo skin stage to which the cultured skin / follicles correspond [2, 3] [dpc] | histology (H&E) of cultured skin [2, 4] | number of visible follicles on the surface of the skin [2, 5] | size and number of epidermal hair germs on the inverted, enzymatically separated epidermis ([2]; embryonic skin cultured 72 hrs, Lef 50 nM, HAase 25 units/ml, vs BSA control) | Syndecan-1 expression (marker of the dermal condensation) ([2]; embryonic skin cultured 72 hrs, 4-methylumbelliferone 30 mM, HAase 25 units/ml)
EGF: growth factor used to inhibit hair follicle formation in skin organ culture (NSYPGCPSSYDGYCLNGGVCMHIESLDSYTCNCVIGYSGDRCQTRDLRWWELR; UniProt P01132 977-1029, looked up) | completely inhibited |  |  |  |  | 
Cc1oncc1C(=O)Nc1ccc(C(F)(F)F)cc1 [Lef, leflunomide] |  | 14.5 | inhibition of follicle development | reduction in the number of visible follicle on the surface of the skin | smaller and sparser than those of the control | 
Cc1cc(=O)oc2cc(O)ccc12 [4-methylumbelliferone] |  | 16.5 | indistinguishable from the control skin | no effect on the number of visible follicles |  | normal hair follicle development
